The source made the active and inactive calls. No cut-off for these calls is given here. Non-standard residues stand in square brackets, D forms with d. Residues, ends and D or L forms follow the SMILES beside them. ξ: configuration not given here. *: point of attachment. NH(2-(1-naphthyl)ethyl) = c1ccc2c(CCN*)cccc2c1; Phe(4-CONH2) = NC(=O)c1ccc(C[C@H](N)C(=O)O)cc1; Phe(4-COOH) = N[C@@H](Cc1ccc(C(=O)O)cc1)C(=O)O; Tryptamide = c1ccc2c(CCN*)c[nH]c2c1; Tic = O=C(O)[C@@H]1Cc2ccccc2CN1; X3 = c1ccc(-c2ccc(CCN*)cc2)cc1; X2 = c1cc(C2CCCCC2)ccc1CCN*; ξTic = O=C(O)C1Cc2ccccc2CN1; X1 = c1ccc2cc(CCN*)ccc2c1; NHDecyl = CCCCCCCCCCN*; NHHex = CCCCCCN*
Experiments:
[1] = molecular target: Kappa-type opioid receptor (Cavia porcellus, UniProt P41144); experiment: Displacement of [3H]U69,593 from kappa opioid receptor in guinea pig brain membrane after 2 hrs; assay type: cell membranes
[2] = (§1) Partial agonist activity at delta opioid receptor in guinea pig ileum; assay type: functional; settings: Cavia porcellus
[3] = molecular target: Delta-type opioid receptor (Rattus norvegicus) (UniProt P33533); experiment: Displacement of [3H]DSLET from delta opioid receptor in rat brain membrane after 2 hrs relative to DPDPE; assay type: cell membranes
[4] = species on record: Cavia porcellus; experiment: as §1; assay type: functional
[5] = molecular target: Delta-type opioid receptor (Mus musculus) (UniProt P32300); experiment: Agonist activity at delta opioid receptor in mouse vas deferens relative to DPDPE; assay type: functional, tissue-based
[6] = molecular target: Delta-type opioid receptor (Homo sapiens) (UniProt P41143); experiment: Agonist activity at human delta opioid receptor expressed in HEK293 cells by [35S]GTP binding assay relative to DPDPE; assay type: functional, cell-based
[7] = molecular target: Delta-type opioid receptor (Homo sapiens) (UniProt P41143); experiment: Partial agonist activity at human delta opioid receptor expressed in HEK293 cells by [35S]GTP binding assay; assay type: functional, cell-based
[8] = molecular target: Delta-type opioid receptor (Homo sapiens) (UniProt P41143); experiment: Antagonist activity at human delta opioid receptor expressed in HEK293 cells by [35S]GTP binding assay; assay type: functional, cell-based
[9] = Agonist activity at delta opioid receptor in guinea pig ileum; settings: Cavia porcellus
[10] = species on record: Cavia porcellus; experiment: Agonist activity at delta opioid receptor in guinea pig ileum at 10 uM; assay type: functional, tissue-based

Sequence of Kappa-type opioid receptor (P41144 whole entry): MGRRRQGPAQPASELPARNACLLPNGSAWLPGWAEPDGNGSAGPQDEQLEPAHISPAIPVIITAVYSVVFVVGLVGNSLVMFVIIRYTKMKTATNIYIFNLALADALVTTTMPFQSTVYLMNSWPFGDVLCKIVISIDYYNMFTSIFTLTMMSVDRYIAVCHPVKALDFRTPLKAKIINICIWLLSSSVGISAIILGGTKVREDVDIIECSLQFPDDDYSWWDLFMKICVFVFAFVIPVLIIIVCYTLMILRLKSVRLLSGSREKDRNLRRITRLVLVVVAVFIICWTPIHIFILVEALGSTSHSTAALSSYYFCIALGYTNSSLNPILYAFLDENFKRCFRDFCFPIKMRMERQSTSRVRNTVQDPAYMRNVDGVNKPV
Sequence of Delta-type opioid receptor (Homo sapiens) (P41143 whole entry): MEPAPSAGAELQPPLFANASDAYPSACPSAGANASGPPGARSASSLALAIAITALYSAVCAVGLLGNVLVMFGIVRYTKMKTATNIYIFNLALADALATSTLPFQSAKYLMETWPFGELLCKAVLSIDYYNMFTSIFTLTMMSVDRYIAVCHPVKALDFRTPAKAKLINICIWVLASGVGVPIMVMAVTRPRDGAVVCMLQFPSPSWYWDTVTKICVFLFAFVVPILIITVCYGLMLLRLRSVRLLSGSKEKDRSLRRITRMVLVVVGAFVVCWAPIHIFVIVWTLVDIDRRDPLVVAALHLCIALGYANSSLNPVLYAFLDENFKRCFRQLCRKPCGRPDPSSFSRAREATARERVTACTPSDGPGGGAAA
Sequence of Delta-type opioid receptor (Mus musculus) (P32300 whole entry): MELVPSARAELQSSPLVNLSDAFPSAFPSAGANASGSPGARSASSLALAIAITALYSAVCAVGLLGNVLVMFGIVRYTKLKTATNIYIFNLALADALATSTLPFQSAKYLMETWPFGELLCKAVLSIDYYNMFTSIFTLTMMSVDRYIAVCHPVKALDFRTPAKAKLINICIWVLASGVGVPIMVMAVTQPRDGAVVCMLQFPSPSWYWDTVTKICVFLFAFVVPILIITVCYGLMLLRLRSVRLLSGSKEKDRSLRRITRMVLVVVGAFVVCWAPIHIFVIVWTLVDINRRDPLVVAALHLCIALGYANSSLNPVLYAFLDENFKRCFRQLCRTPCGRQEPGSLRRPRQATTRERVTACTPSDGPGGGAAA
Sequence of Delta-type opioid receptor (Rattus norvegicus) (P33533 whole entry): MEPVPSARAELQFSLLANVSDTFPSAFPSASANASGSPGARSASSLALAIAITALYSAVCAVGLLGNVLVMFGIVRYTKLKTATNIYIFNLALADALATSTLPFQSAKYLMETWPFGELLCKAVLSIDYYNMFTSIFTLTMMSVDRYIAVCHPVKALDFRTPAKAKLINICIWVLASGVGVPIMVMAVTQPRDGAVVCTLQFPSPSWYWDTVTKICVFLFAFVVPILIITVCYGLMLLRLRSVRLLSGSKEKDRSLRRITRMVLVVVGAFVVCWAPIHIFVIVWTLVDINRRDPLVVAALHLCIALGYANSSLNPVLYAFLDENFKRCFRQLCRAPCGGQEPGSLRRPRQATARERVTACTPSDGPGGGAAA

## CCCCCCCCCCNC(=O)c1ccc(C[C@H](N)C(=O)N2Cc3ccccc3C[C@H]2C(=O)N[C@@H](Cc2ccccc2)C(=O)N[C@@H](Cc2ccccc2)C(=O)O)cc1 (H-[Phe(4-COOH)](NHDecyl)[Tic]FF-OH)
[1]
  Ki: > 10 µM

## N[C@@H](Cc1ccc(C(=O)NCCc2ccc(C3CCCCC3)cc2)cc1)C(=O)N1Cc2ccccc2C[C@H]1C(=O)N[C@@H](Cc1ccccc1)C(=O)N[C@@H](Cc1ccccc1)C(=O)O (H-[Phe(4-COOH)](X2)[Tic]FF-OH) [listing 1 of 2 here]
[2]
  IC35: 0.0234 µM

## N[C@@H](Cc1ccc(C(=O)NCCc2ccc3ccccc3c2)cc1)C(=O)N1Cc2ccccc2C[C@H]1C(=O)N[C@@H](Cc1ccccc1)C(=O)N[C@@H](Cc1ccccc1)C(=O)O (H-[Phe(4-COOH)](X1)[Tic]FF-OH)
[3]
  fold change (FC): 5
[4]
  Activity: Active
[5]
  fold change (FC): 2
[1]
  Ki: > 10 µM

## N[C@@H](Cc1ccc(C(=O)NCCc2ccc(-c3ccccc3)cc2)cc1)C(=O)N1Cc2ccccc2CC1C(=O)N[C@@H](Cc1ccccc1)C(=O)N[C@@H](Cc1ccccc1)C(=O)O (some centres not stated) (H-[Phe(4-COOH)](X3)[ξTic]FF-OH)
[6]
  Ratio: 0.678
[1]
  Ki: > 10 µM
[7]
  ED50: 0.000413 µM

## N[C@@H](Cc1ccc(O)cc1)C(=O)N1Cc2ccccc2C[C@H]1C(=O)N[C@@H](Cc1ccccc1)C(=O)N[C@@H](Cc1ccccc1)C(=O)O (H-Y[Tic]FF-OH)
[8]
  Activity: Active
[1]
  Ki: > 10 µM
[9]
  IC50: > 10 µM

## CCCCCCNC(=O)c1ccc(C[C@H](N)C(=O)N2Cc3ccccc3C[C@H]2C(=O)N[C@@H](Cc2ccccc2)C(=O)N[C@@H](Cc2ccccc2)C(=O)O)cc1 (H-[Phe(4-COOH)](NHHex)[Tic]FF-OH)
[1]
  Ki: > 10 µM

## N[C@@H](Cc1ccc(C(=O)NCCc2ccc(C3CCCCC3)cc2)cc1)C(=O)N1Cc2ccccc2C[C@H]1C(=O)N[C@@H](Cc1ccccc1)C(=O)N[C@@H](Cc1ccccc1)C(=O)O (H-[Phe(4-COOH)](X2)[Tic]FF-OH) [listing 2 of 2 here]
[1]
  Ki: > 10 µM

## N[C@@H](Cc1ccc(C(=O)NCCc2c[nH]c3ccccc23)cc1)C(=O)N1Cc2ccccc2C[C@H]1C(=O)N[C@@H](Cc1ccccc1)C(=O)N[C@@H](Cc1ccccc1)C(=O)O (H-[Phe(4-COOH)](Tryptamide)[Tic]FF-OH)
[4]
  Activity: Active
[1]
  Ki: > 10 µM

## NC(=O)c1ccc(C[C@H](N)C(=O)N2Cc3ccccc3C[C@H]2C(=O)N[C@@H](Cc2ccccc2)C(=O)N[C@@H](Cc2ccccc2)C(=O)O)cc1 (H-[Phe(4-CONH2)][Tic]FF-OH)
[8]
  Activity: Active
[1]
  Ki: > 10 µM

## N[C@@H](Cc1ccc(C(=O)NCCc2cccc3ccccc23)cc1)C(=O)N1Cc2ccccc2C[C@H]1C(=O)N[C@@H](Cc1ccccc1)C(=O)N[C@@H](Cc1ccccc1)C(=O)O (H-[Phe(4-COOH)](NH(2-(1-naphthyl)ethyl))[Tic]FF-OH)
[3]
  fold change (FC): 5
[5]
  fold change (FC): 2
[1]
  Ki: > 10 µM
[10]
  Activity: inactive

From ChEMBL document CHEMBL2202965 (Bioorg Med Chem Lett, 2012)
